Source: US10576085B2, “Substituted aminopurine compounds, compositions thereof, and methods of treatment therewith” (Signal Pharmaceuticals, LLC, priority 2016, dated 2020)
pIC50: −log10 of the molar value.

Experiments:
Format in all cases: cell-based
[1] = test system: Axin2 expression in human bronchial epithelial cells; test: Gene expression analysis, Axin2 RT-PCR, Wnt3a/RSPO3 stimulated; conditions: 0.1, 1, 10 uM; Wnt3a / RSPO3 stimulation; 24 hours
Experimental: Human bronchial epithelial cells were cultured in T-150 flasks in BEpiCM growth medium and allowed to reach 80% confluency. Cells were plated in 12-well plastic culture plates at 150,000 cells per well in BEpiCM medium for 24 hours. After a 24-hour incubation, cells were treated with dimethyl sulfoxide (DMSO) as a control, Compound 1 at 0.1, 1, 10 uM, for 30 minutes. Cells were then stimulated with 100 ng/ml recombinant Wnt3a (formulated in phosphate buffered saline [PBS]), 350 pM RSPO3 (formulated in PBS) or a combination of Wnt3 and RSPO3 for 24 hours. Ribonucleic acid (RNA) was isolated using a Qiagen Rneasy Mini Kit according to manufacturer's instruction. Axin2 and gene expression was determined using reverse transcription polymerase chain reaction (RT-PCR) Taq-Man assays. Quantitative PCR (qPCR) was performed using SuperScript® III One-Step RT-PCR System and ran on a Viia 7 Real-Time PCR System. Data was normalized to glyceraldehyde 3-phosphate dehydrogenase. […] Gene expression was measured at 24 hours. […] (FIG. 22).

[2] = test system: TEAD reporter activity (YAP/TAZ responsive synthetic promoter); test: TEAD reporter assay, 8×GTIIC-luciferase WI38 VA13 cells; conditions: Homo sapiens, WI-38 VA13; 24 hour assay; cumulative data of three experiments
Experimental: TEAD reporter activity was analyzed using WI38 VA13 cells stably expressing a YAP/TAZ responsive synthetic promoter driving luciferase expression (8×GTIIC-luciferase). 10,000 cells per well were seeded on a white-walled 96-well plate and left overnight. After 16-20 hours, cells were treated with compound and TEAD reporter activity was measured 24 or 72 hours later using Bright Glo luciferase assay (Promega) according to the manufacturers instructions. This assay was performed 3 times for Compound 1 and twice for Trametinib.

PD-L1 [3] = test: PD-L1 expression, Western blot, HOP62
Experimental: (§1) The effect of Compound 1 was evaluated on PD-L1 expression levels. Cells were cultured in presence or absence of Compound 1 for indicated time before expression levels of PD-L1, DUSP4 and α-tubulin or α-actin were measured by Western blot. To detect surface levels of PD-L1, cells were treated with DMSO or Compound 1 at indicated concentrations for 48 h and cell surface expression of PD-L1 was detected using flow cytometry analysis (FACS) with an APC-labeled antibody to PD-L1 (clone 29E.1A3; BioLegend, San Diego, Calif.). Geometric mean of PD-L1 positive cells was determined by FlowJo 10 (Treestar, Ashland, Oreg.).

[4] = test system: MAPK signaling (pRSK1, DUSP4, DUSP6, SPRY2, cyclin D1, c-Myc, YAP); test: MAPK signaling markers (MSD, Western blot, qPCR) in Colo 205 (BRAF V600E)
Experimental: In a time course experiment, Colo-205 cancer cells were treated with 0.5 μM Compound 1 for various time periods. The effect of Compound 1 on pRSK S380 was measured as described. The effect of Compound 1 on other MAPK pathway markers (DUSP4 and DUSP6) was measured via Western blotting with specific antibodies.
The ability of Compound 1 to inhibit MAPK signaling was assessed by determining the DUSP4 and DUSP6 protein expression. Colon cancer cell line Colo 205 (BRAF V600E) cultures were treated with DMSO or increasing concentrations of Compound 1 for 2, 8 or 24 h. Proteins were extracted from treated cells and analyzed by Western blot using antibodies against DUSP4, DUSP6, cyclin D1, c-Myc, YAP or β-actin. RNAs were extracted using Cell-To-CT kit and quantitative PCR was performed with probes specific for DUSP4, DUSP6, SPRY2, c-Myc and cyclin D1. Specific probes for β-actin were used for normalization.
Compound 1 modulation of MAPK, WNT/β-catenin, and Hippo/YAP pathway markers was evaluated by standard Western blotting. LOX-IMVI, SW48, and Colo-205 cells were plated in 6-well plates at a density of 250,000 cells per well and were allowed to attach overnight. Compound 1 was added to cells at concentrations of 0.03, 0.1, 0.3, 1, and 3 μM for durations of 2, 8, and 24 hours. […] The cell lysates were heated in sodium dodecyl sulfate (SDS)-sample buffer and 40 μg of cell lysate per condition were loaded onto gels and separated using SDS polyacrylamide gel electrophoresis (PAGE). Protein was transferred to nitrocellulose membrane, and immunoblotted with anti DUSP4, DUSP6, cMyc, Cyclin D1, YAP, AXIN2, HDACS (phospho S498), and β-actin antibodies. Membranes were scanned on the Licor Odyssey system.
Compound 1 modulation of MAPK, WNT/β-catenin, and Hippo/YAP pathway genes was evaluated by real-time (RT)-qPCR. […], SW48, and Colo-205 cells were plated in 96-well plates at a density of 20,000 cells per well and were allowed to attach overnight. Compound 1 was added to cells at half log concentrations from 1 nM to 10 μM for durations of 2, 8, and 24 hours. Cells were harvested using the TaqMan Gene Expression Cells-to-CT Kit according to the product manual. Next, RT-PCR was performed and the resulting cDNA was used in qPCR reactions on the ViiA7 Real-Time PCR System (Thermo Fisher Scientific). TaqMan probes were used to monitor changes in DUSP4, DUSP6, SPRY2, MYC, CCND1, AXIN2, CTGF, Cyr61, AREG, and ACTB genes. All genes were normalized to ACTB expression and reported as percentage of DMSO-only control.

PD-L1 [5] = test: PD-L1 expression, Western blot, LOX-IMVI (BRAF V600E)
Experimental: as §1

HuH-1 = test: Apoptosis, Caspase 3/7-Glo; conditions: lowest concentration inducing 2-fold increase of cleaved caspase 3/7 vs DMSO
Experimental: Prior to testing, cells were grown and expanded in culture flasks to provide sufficient amounts of starting material. Cells were then diluted to the appropriate densities and added directly to the compound-spotted 384-well plates. Cells were allowed to grow for 72 h at 37° C./5% CO2. At the time when compound was added (t0), initial cell number was assessed via a viability assay (Cell Titer-Glo) by quantifying the level of luminescence generated by ATP present in viable cells. After 72 h, cell viability of compound-treated cells was assessed via Cell Titer-Glo and luminescence measurement. The apoptotic response to Compound 1 was assessed by quantifying the activities of caspase 3 and caspase 7 (Caspase 3/7-Glo) in treated cells and DMSO control cells.
Proliferation and apoptosis were measured using CellTiter-Glo and Caspase 3/7-Glo. CalX2 values are the lowest concentration at which Compound 1 induces a 2-fold increase of cleaved caspase 3/7 compared to DMSO control. Proliferation and apoptosis data is the average of 3 experiments.

[6] = test system: cell lines with mutated β-catenin; test: Evaluation of sensitivity in cell lines having beta-catenin mutations; conditions: FIG. 18, FIGS. 19A-19B
Experimental: The effect of Compound 1 on cell lines having β-catenin mutations was evaluated. (FIG. 18 and FIGS. 19A-19B).

C[C@]1(C(N)=O)CC[C@@H](n2c(Nc3c(Cl)cc(Cl)cc3Cl)nc3cnc(N[C@@H]4CCOC[C@H]4F)nc32)CC1 [Compound 1, cis-4-[2-{[(3S,4R)-3-fluorooxan-4-yl]amino}-8-(2,4,6-trichloroanilino)-9H-purin-9-yl]-1-methyl cyclohexane-1-carboxamide]
Axin2 expression [1]: inhibits Axin2 expression
pIC50 [2]: < 5.00
PD-L1 expression (PD-L1 [3]): directly inhibits PD-L1 expression
cyclin D1 and c-Myc RNA and protein levels ([4]; Colo 205): significantly decreased
DUSP4 and DUSP6 protein (Western blot) ([4]; Colo 205 (BRAF V600E), as early as 2 h, sustained through 24 h): significantly reduced
YAP protein ([4]; Colo 205, 24 h): decreased YAP protein
SPRY2 transcription ([4]; Colo 205, qPCR): reduction of SPRY2 transcription in a concentration-dependent manner
Inhibition of ERK targets pRSK1, DUSP4 and DUSP6, time course ([4]; Colo-205, 0.5 μM): sustained inhibition (up to 72 hr)
PD-L1 expression (PD-L1 [5]): directly inhibits PD-L1 expression
Cal_X2 (HuH-1): 6.5641
Efficacy against cell lines with mutated β-catenin [6]: showed efficacy
